Common to all, as to assay: NCI tumour cell line growth inhibition, 48 h
In assay [1] the test system is M14 melanoma.
The subject of assay [2] is HL-60(TB) leukemia.
In assay [3] the test system is SK-MEL-2 melanoma.
Assay [4] concerns CAKI-1 renal.
Assay [5] concerns KM12 colon.
In assay [6] the test system is SNB-75 CNS.
The test system of assay [7] is RPMI-8226 leukemia.
In assay [8] the test system is EKVX NSCLC.

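Cultured in 96-well plates, cells were exposed to test compound for 48 hours across five concentrations. GI50 = concentration required for 50% inhibition of growth. The concentration for full growth arrest is given as TGI.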 A value given as a limit tells only on which side of the number the result lay.

Among the data in PubChem BioAssay (NCI) are TGI and GI50 values, retold here.

As for `NC(Cc1ccnnc1)C(=O)O` (stereo not given), the TGI in assay [1], in assay [2], in assay [3], in assay [4], in assay [5] and in assay [6] was above 100 µM each time. Also, the TGI in assay [7] and in assay [8] was above 100 µM each time.

In the case of `O=S(=O)(O)/C(=C\c1ccccc1)c1ccccc1` (tested in a mixture with another compound), the TGI in assay [1], in assay [2], in assay [3], in assay [4], in assay [5] and in assay [6] was above 100 µM in each case. The TGI in assay [7] and in assay [8] was above 100 µM in each case.

In the case of `C/C1=C/C(=O)O[C@@H]2C[C@@H](CC[C@H](C)/C=C\C=C\CC1)O[C@@](OCCc1ccccc1)([C@@H]1CSC(=O)N1)C2`, the GI50 is 0.204 µM in assay [1]; 1.31 µM in assay [2]; 0.917 µM in assay [3]; 0.0222 µM in assay [4]; 6.19 µM in assay [5]; 0.022 µM in assay [6]. Further, the figures for the GI50 in assay [7] and in assay [8] were 3.28 µM and 0.106 µM, respectively. Besides, the TGI in assay [1] was above 17.5 µM; in assay [2] it was above 17.5 µM; in assay [3], above 13.8 µM; in assay [4], 0.0811 µM; in assay [5], above 17.5 µM; in assay [6] it was 0.0597 µM. The TGI in assay [7] and in assay [8] was above 17.5 µM throughout.

Regarding `C/C1=C\C/C=C(\C)[C@H]2CC(CC/C(C)=C/CC1)[C@](C)(C=O)O2`, the GI50 was 51.9 µM in assay [1]; 25.6 µM in assay [2]; above 100 µM in assay [3]; 36.4 µM in assay [4]; above 100 µM in assay [5]; above 100 µM in assay [6]. Moreover, the GI50 is 27.1 µM in assay [7] and above 100 µM in assay [8]. Also, the TGI is above 100 µM in assay [1]; 81.2 µM in assay [2]; above 100 µM in assay [3]; 99.2 µM in assay [4]; above 100 µM in assay [5]; above 100 µM in assay [6]. Besides, the TGI in assay [7] was 76.8 µM; in assay [8], above 100 µM.

As for `OCC#Cc1ccccc1C#Cc1ccc(C#Cc2ccccc2C#CCO)s1`, the GI50 in assay [1] is 23.3 µM; in assay [2], 43.4 µM; in assay [3], 14.6 µM; in assay [4], 12.1 µM; in assay [5], 15.1 µM; in assay [6], 48.1 µM. Besides, the GI50 in assay [7] was 22.2 µM; in assay [8], 19.9 µM. Further, the TGI in assay [1] was 49 µM; in assay [2], above 100 µM; in assay [3], 35.8 µM; in assay [4] it was 25.1 µM; in assay [5], 30.6 µM; in assay [6] it was 78.7 µM. Besides, the TGI in assay [7] was found to be 49.1 µM; in assay [8], 43.1 µM.

On to `CCCCCCCCCCCCCC(=O)C(C)N` (stereo not given), for which the GI50 is 8.66 µM in assay [1]; 2.65 µM in assay [2]; 16 µM in assay [3]; 10 µM in assay [4]; 3.71 µM in assay [5]; 6.56 µM in assay [6]. The GI50 in assay [7] is 6.26 µM; in assay [8] it was 2.13 µM. Also, the TGI in assay [1] is 22.1 µM; in assay [2] it was 10.4 µM; in assay [3] it was 31.2 µM; in assay [4], 22.6 µM; in assay [5], 15.5 µM; in assay [6], 20.7 µM. Besides, the TGI is 23.7 µM in assay [7] and 4.75 µM in assay [8].

`C1=C(c2ccccc2)C(c2ccc(OCCN3CCCCC3)cc2)Oc2ccccc21` (stereo not given): the GI50 was 1.73 µM in assay [1]; 1.73 µM in assay [2]; 2.03 µM in assay [3]; 1.34 µM in assay [4]; 1.74 µM in assay [5]; 1.6 µM in assay [6]. Also, the GI50 was 2.25 µM in assay [7] and 1.54 µM in assay [8]. The TGI in assay [1] worked out at 3.38 µM; in assay [2], 3.76 µM; in assay [3], 4.33 µM; in assay [4] it was 2.75 µM; in assay [5], 3.29 µM; in assay [6], 3.44 µM. In addition, the TGI is 5.02 µM in assay [7] and 3.35 µM in assay [8].

For the molecule `CC1SC(c2c(Cl)cccc2Cl)N(NC(=O)C(O)c2ccccc2)C1=O` (stereo not given), the GI50 is 87 µM in assay [1]; 94 µM in assay [2]; above 100 µM in assay [3]; 62.1 µM in assay [4]; 44.1 µM in assay [5]; 46.9 µM in assay [6]. For the same molecule, the GI50 is 35.8 µM in assay [7] and above 100 µM in assay [8]. Also, the TGI in assay [1], in assay [2], in assay [3], in assay [4], in assay [5] and in assay [6] was above 100 µM throughout. The TGI in assay [7] and in assay [8] was above 100 µM each time.

For the molecule `CC(=O)[C-](C(C)=O)c1ccccc1.CC(=O)[C-](C(C)=O)c1ccccc1.CC[O-].CC[O-].[Ti+4]`, the GI50 in assay [1], in assay [2], in assay [3], in assay [4], in assay [5] and in assay [6] was above 100 µM each time. Further, the GI50 in assay [7] and in assay [8] was above 100 µM in each case. In addition, the TGI in assay [1], in assay [2], in assay [3], in assay [4], in assay [5] and in assay [6] was above 100 µM throughout. Moreover, the TGI in assay [7] and in assay [8] was above 100 µM throughout.

As to `CC(=O)OC1CCC2(C)C(=CCC3C4CCC5(OC6CC(C)CN(C(C)=O)C6C5C)C(C)=C4C(=O)C32)C1` (stereo not given), the TGI in assay [1] was 28.9 µM; in assay [2] it was above 100 µM; in assay [3], 31.9 µM; in assay [4], 75.1 µM; in assay [5], 37.6 µM; in assay [6], 41.5 µM. Besides, the TGI in assay [7] stood at 37.6 µM; in assay [8], 27.5 µM.

Regarding `COc1ccc(C(=O)COc2cccc(/C=C3\CSc4ccc(Cl)cc4C3=O)c2)cc1`, the GI50 was 13.4 µM in assay [1]; 2.18 µM in assay [2]; 11.7 µM in assay [3]; 12.4 µM in assay [4]; 2.28 µM in assay [5]; 16.5 µM in assay [6]. For the same molecule, the GI50 in assay [7] was 0.214 µM; in assay [8], 15.3 µM. For the same molecule, the TGI in assay [1] is 31.6 µM; in assay [2], 7.21 µM; in assay [3], 25.1 µM; in assay [4], 25.1 µM; in assay [5], 5.57 µM; in assay [6] it was 37.2 µM. Moreover, the TGI in assay [7] was 3.51 µM; in assay [8], 52 µM.

As to `CC(C)(C)[Si](C)(C)OCC1C=CC(n2cnc3c(N)ncnc32)O1` (stereo not given), the TGI in assay [1] is 66.9 µM; in assay [2], 40.3 µM; in assay [3] it was above 100 µM; in assay [4] it was above 100 µM; in assay [5], above 100 µM; in assay [6], above 81 µM. In addition, the TGI in assay [7] is 58.3 µM; in assay [8], above 100 µM.

Consider `CO[C@@]12C[C@H]3[C@@H]([C@@H](O)[C@@H](OC(=O)/C=C/c4ccccc4)[C@@]4(O)C(C)(C)CCC[C@]34C)[C@@H](C)C1=CC(=O)O2`, for which the GI50 is 18.2 µM in assay [1]; 11.1 µM in assay [2]; 27 µM in assay [3]; 6.76 µM in assay [4]; 6.74 µM in assay [5]; 0.382 µM in assay [6]. Further, the GI50 in assay [7] was 3.58 µM; in assay [8], 5.36 µM. Further, the TGI in assay [1] was above 100 µM; in assay [2], above 100 µM; in assay [3], above 100 µM; in assay [4], 30.8 µM; in assay [5], 28.6 µM; in assay [6], 2.46 µM. Besides, the TGI worked out at 20.8 µM in assay [7] and 57.5 µM in assay [8].

On to `C#Cc1cccc(Oc2ccc(NC(=O)CCl)cc2)c1`, for which the GI50 in assay [1] is 72.8 µM; in assay [2], 63.4 µM; in assay [3], above 82.5 µM; in assay [4] it was above 82.5 µM; in assay [5], above 82.5 µM; in assay [6] it was above 82.5 µM. Besides, the GI50 in assay [7] and in assay [8] was above 82.5 µM each time. For the same molecule, the TGI in assay [1], in assay [2], in assay [3], in assay [4], in assay [5] and in assay [6] was above 82.5 µM each time. In addition, the TGI in assay [7] and in assay [8] was above 82.5 µM throughout.

Turning to `NCCP(=O)(O)O`, the TGI in assay [1], in assay [2], in assay [3], in assay [4], in assay [5] and in assay [6] was above 100 µM each time. Further, the TGI in assay [7] and in assay [8] was above 100 µM in each case.

For `O=S(=O)(NCCNc1cc(-c2cn(-c3ccccc3)nc2-c2cccc(O)c2)ccn1)c1ccc(Cl)cc1`, the GI50 is 2.54 µM in assay [1]; 2.42 µM in assay [2]; 2.4 µM in assay [3]; 4.46 µM in assay [4]; 2.63 µM in assay [5]; 3.28 µM in assay [6]. The values for the GI50 in assay [7] and in assay [8] were 2.59 µM and 2.87 µM, respectively. Also, the TGI in assay [1] was 8.61 µM; in assay [2], 5.98 µM; in assay [3], 5.71 µM; in assay [4], above 100 µM; in assay [5], 9.62 µM; in assay [6], 20.4 µM. The TGI was determined as 7.75 µM in assay [7] and 31.2 µM in assay [8].

Turning to `O=C(Nc1ccccc1O)c1ccc(CNC(=O)c2sccc2Nc2ccnc(C(F)(F)F)c2)cc1`, the GI50 in assay [1] is 7.87 µM; in assay [2], 6.27 µM; in assay [3], 6.97 µM; in assay [4], 6.63 µM; in assay [5], 12.2 µM; in assay [6] it was 4.96 µM. In addition, the GI50 in assay [7] was 3.59 µM; in assay [8] it was 8.77 µM. Besides, the TGI in assay [1] is 27.8 µM; in assay [2], 44.8 µM; in assay [3], 28.5 µM; in assay [4], 23.9 µM; in assay [5] it was 32 µM; in assay [6] it was 44.5 µM. In addition, the TGI in assay [7] is 36.2 µM; in assay [8], 57.7 µM.

With `COc1ccc2c(c1)cn1c3ccc(O)cc3[nH]c(=O)c21`, the GI50 is 0.0984 µM in assay [1]; 0.216 µM in assay [2]; 0.215 µM in assay [3]; 0.302 µM in assay [4]; 0.329 µM in assay [5]; 0.227 µM in assay [6]. Further, the GI50 is 0.306 µM in assay [7] and 0.797 µM in assay [8]. The TGI in assay [1] worked out at 1.21 µM; in assay [2] it was 1.2 µM; in assay [3], 2.08 µM; in assay [4], 16.3 µM; in assay [5] it was 5.39 µM; in assay [6], 13.6 µM. Besides, the TGI in assay [7] stood at 1.93 µM; in assay [8] it was 19.2 µM.

Regarding `COc1ccc(-c2nnc(N3CCN(C(=O)CN4CCN(c5ccc(Cl)cc5)CC4)CC3)nc2-c2ccc(OC)cc2)cc1`, the GI50 in assay [1] is 35.8 µM; in assay [2] it was 10.7 µM; in assay [3], 35.5 µM; in assay [4], 28.5 µM; in assay [5], 8.5 µM; in assay [6], 19.5 µM. Also, the figures for the GI50 in assay [7] and in assay [8] were 5.19 µM and above 100 µM, respectively. The TGI is above 100 µM in assay [1]; 52.3 µM in assay [2]; above 100 µM in assay [3]; above 100 µM in assay [4]; above 100 µM in assay [5]; 65.3 µM in assay [6]. In addition, the TGI in assay [7] and in assay [8] was above 100 µM in each case.

Take `C[C@]12C3CC[C@@]4(CO)C[C@]3(CCC1[C@](C)(C(=O)O)CC[C@@H]2O)CC4=O` (stereo not given in full): the GI50 in assay [1], in assay [2], in assay [3], in assay [4], in assay [5] and in assay [6] was above 100 µM each time. Besides, the GI50 in assay [7] and in assay [8] was above 100 µM each time. The TGI in assay [1], in assay [2], in assay [3], in assay [4], in assay [5] and in assay [6] was above 100 µM in each case. Further, the TGI in assay [7] and in assay [8] was above 100 µM throughout.
